Measurements taken from PubChem BioAssay AID248 (DTP/NCI, 2004).
Values joined by “and” are separate entries in the source; they are usually repeats but may differ in a detail not shown here. Identical values can stand only once. Toxic doses and inconclusive results are not listed. Cut-off read from the data, not from the text of the source: active = T/C of 150% or more; inactive = T/C below 125%.

Tested on: L1210 leukemia ip in BDF1 mice, survival T/C
Experiment: NCI In Vivo Anticancer Drug Screen. Data for tumor model L1210 Leukemia (intraperitoneal) in B6D2F1 (BDF1) mice
Conditions: endpoint: mean survival time, higher = longer survival
Procedure, shortened: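 Value reflects the ratio of survival in compound-treated mice to survival in vehicle-treated controls, with both groups carrying the same transplanted tumor.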

[1] = dose: 100.0 mg/kg/injection, schedule: Q04DX003 (ip), vehicle: saline with Tween-80
[2] = dose: 100.0 mg/kg/injection, schedule: Q01DX001 (ip), vehicle: saline
[3] = dose: 200.0 mg/kg/injection, schedule: Q01DX001 (ip), vehicle: saline
[4] = dose: 400.0 mg/kg/injection, schedule: Q01DX001 (ip), vehicle: saline
[5] = dose: 100.0 mg/kg/injection, schedule: Q01DX009 (ip), vehicle: Klucel (hydroxypropylcellulose) (HPC)
[6] = dose: 200.0 mg/kg/injection, schedule: Q01DX009 (ip), vehicle: Klucel (hydroxypropylcellulose) (HPC)
[7] = dose: 400.0 mg/kg/injection, schedule: Q01DX009 (ip), vehicle: Klucel (hydroxypropylcellulose) (HPC)
[8] = dose: 50.0 mg/kg/injection, schedule: Q01DX009 (ip), vehicle: Klucel (hydroxypropylcellulose) (HPC)
[9] = dose: 25.0 mg/kg/injection, schedule: Q01DX009 (ip), vehicle: Klucel (hydroxypropylcellulose) (HPC)
[10] = dose: 200.0 mg/kg/injection, schedule: Q04DX003 (ip), vehicle: saline with Tween-80
[11] = dose: 400.0 mg/kg/injection, schedule: Q04DX003 (ip), vehicle: saline with Tween-80
[12] = dose: 100.0 mg/kg/injection, schedule: Q04DX002 (ip), vehicle: other
[13] = dose: 25.0 mg/kg/injection, schedule: Q04DX002 (ip), vehicle: saline with Tween-80
[14] = dose: 50.0 mg/kg/injection, schedule: Q04DX002 (ip), vehicle: saline with Tween-80
[15] = dose: 100.0 mg/kg/injection, schedule: Q04DX002 (ip), vehicle: saline with Tween-80

Measured: T/C

O=C(NC/C=C/Br)Nc1cnc2ccccc2c1
inactive: dose: 12.5 mg/kg/injection, schedule: Q01DX009 (ip), vehicle: saline with Tween-80 96 % of control | dose: 25.0 mg/kg/injection, schedule: Q01DX009 (ip), vehicle: saline with Tween-80 101 % of control | dose: 50.0 mg/kg/injection, schedule: Q01DX009 (ip), vehicle: saline with Tween-80 96 % of control | [1] 89 % of control

CCOC(=O)C(OC(=O)c1ccccc1)C(OC(=O)c1ccccc1)C(=O)OCC (stereo not drawn)
inactive: [2] 102 % of control | [3] 100 % of control | [4] 93 % of control

c1ccc2c(c1)CCc1ccccc1CC2
inactive: [5] 93 % of control | [6] 96 % of control | [7] 90 % of control

CCCCCCCCN1CCC(c2cccc(O)c2)C(C(=O)CC)C1 (stereo not drawn)
inactive: dose: 6.0 mg/kg/injection, schedule: Q01DX009 (ip), vehicle: Klucel (hydroxypropylcellulose) (HPC) 94 % of control and 102 % of control | dose: 12.0 mg/kg/injection, schedule: Q01DX009 (ip), vehicle: Klucel (hydroxypropylcellulose) (HPC) 94 % of control | [8] 87 % of control

CCn1c(C)nc2cc(Cl)c([N+](=O)[O-])cc21
inactive: [2] 91 % of control | dose: 100.0 mg/kg/injection, schedule: Q04DX003 (ip), vehicle: acetone 93 % of control | [3] 110 % of control | dose: 200.0 mg/kg/injection, schedule: Q04DX003 (ip), vehicle: acetone 93 % of control | [4] 96 % of control | dose: 400.0 mg/kg/injection, schedule: Q04DX003 (ip), vehicle: acetone 96 % of control

COc1cc(Br)c(CCBr)cc1OC
inactive: [9] 98 % of control | [8] 94 % of control | [5] 100 % of control | [1] 96 % of control | [10] 94 % of control | [11] 104 % of control

O=[N+]([O-])c1ccc(Oc2c(Cl)cc(Cl)cc2Cl)c([N+](=O)[O-])c1
inactive: dose: 222.0 mg/kg/injection, schedule: Q01DX Z (ip), vehicle: methylcellulose (MC) 103 % of control | dose: 333.0 mg/kg/injection, schedule: Q01DX Z (ip), vehicle: methylcellulose (MC) 105 % of control | dose: 500.0 mg/kg/injection, schedule: Q01DX Z (ip), vehicle: methylcellulose (MC) 101 % of control

O=[N+]([O-])c1ccc(S)c(Cl)c1
inactive: dose: 12.5 mg/kg/injection, schedule: Q01DX009 (ip), vehicle: Klucel (hydroxypropylcellulose) (HPC) 104 % of control | [9] 104 % of control

CN(C)CCCC(=O)O
inactive: dose: 100.0 mg/kg/injection, schedule: Q01DX009 (ip), vehicle: saline 89 % of control | [1] 106 % of control | dose: 200.0 mg/kg/injection, schedule: Q01DX009 (ip), vehicle: saline 97 % of control | [10] 95 % of control | dose: 400.0 mg/kg/injection, schedule: Q01DX009 (ip), vehicle: saline 95 % of control | [11] 88 % of control

O=C(O)COc1c(Br)cc(F)cc1Br
inactive: [12] 103 % of control | dose: 200.0 mg/kg/injection, schedule: Q04DX002 (ip), vehicle: other 109 % of control and 90 % of control | dose: 400.0 mg/kg/injection, schedule: Q04DX002 (ip), vehicle: other 100 % of control and 86 % of control

CN(C)c1ccc(/C(=N\O)c2cc[n+](C)cc2)cc1
inactive: dose: 1.56 mg/kg/injection, schedule: Q01DX009 (ip), vehicle: saline 98 % of control | dose: 3.13 mg/kg/injection, schedule: Q01DX009 (ip), vehicle: saline 111 % of control | dose: 6.25 mg/kg/injection, schedule: Q01DX009 (ip), vehicle: saline 104 % of control

CCOC(=O)c1nnc(SC)nc1SC
inactive: dose: 75.0 mg/kg/injection, schedule: Q01DX001 (ip), vehicle: alcohol 100 % of control | dose: 150.0 mg/kg/injection, schedule: Q01DX001 (ip), vehicle: alcohol 108 % of control

O=C[CH2][Hg][Cl]
inactive: dose: 0.78 mg/kg/injection, schedule: Q01DX009 (ip), vehicle: saline with Tween-80 96 % of control | dose: 1.56 mg/kg/injection, schedule: Q01DX009 (ip), vehicle: saline with Tween-80 96 % of control | dose: 3.13 mg/kg/injection, schedule: Q01DX009 (ip), vehicle: saline with Tween-80 93 % of control

CC(=O)O/C=C1\CC2C3CC=C4CC(OC(C)=O)CCC4(C)C3CCC2(C)C1=O (stereo not drawn)
inactive: dose: 200.0 mg/kg/injection, schedule: Q01DX001 (ip), vehicle: saline with Tween-80 90 % of control | dose: 400.0 mg/kg/injection, schedule: Q01DX001 (ip), vehicle: saline with Tween-80 90 % of control

COc1ccc(/C=C(\CCCOC(C)=O)[N+](=O)[O-])cc1
inactive: [2] 100 % of control | [3] 111 % of control | [4] 113 % of control

O=S1(=O)CC(c2ccccc2)=NN=C(c2ccccc2)C1
inactive: [2] 92 % of control | [3] 86 % of control | [4] 92 % of control

CC(=O)OC(OC(C)=O)c1cccc2ccccc12
inactive: dose: 222.0 mg/kg/injection, schedule: Q01DX Z (ip), vehicle: saline 91 % of control | dose: 333.0 mg/kg/injection, schedule: Q01DX Z (ip), vehicle: saline 98 % of control | dose: 500.0 mg/kg/injection, schedule: Q01DX Z (ip), vehicle: saline 109 % of control

O=[N+]([O-])c1ccccc1N=Nc1c(O)[nH]c2ccc(S(=O)(=O)O)cc12
inactive: dose: 100.0 mg/kg/injection, schedule: Q01DX001 (ip), vehicle: acetone 94 % of control | dose: 200.0 mg/kg/injection, schedule: Q01DX001 (ip), vehicle: acetone 92 % of control | dose: 400.0 mg/kg/injection, schedule: Q01DX001 (ip), vehicle: acetone 100 % of control

CN(C=O)c1ccccc1C(=O)O
inactive: [1] 97 % of control | [10] 97 % of control | [11] 100 % of control

NC(N)=N/N=C/c1cc(Br)ccc1O
inactive: dose: 75.0 mg/kg/injection, schedule: Q01DX001 (ip), vehicle: saline 102 % of control | dose: 150.0 mg/kg/injection, schedule: Q01DX001 (ip), vehicle: saline 98 % of control

C[N+](C)(C)CCOC(=O)c1ccc(CCl)cc1
inactive: [13] 113 % of control | [14] 102 % of control | [12] 98 % of control | [15] 110 % of control

Cc1cccc(C)c1N1C(=O)CCC1=O
inactive: [8] 98 % of control | [5] 96 % of control | dose: 100.0 mg/kg/injection, schedule: Q04DX003 (ip), vehicle: Klucel (hydroxypropylcellulose) (HPC) 94 % of control | [6] 100 % of control | dose: 200.0 mg/kg/injection, schedule: Q04DX003 (ip), vehicle: Klucel (hydroxypropylcellulose) (HPC) 97 % of control | [7] 100 % of control | dose: 400.0 mg/kg/injection, schedule: Q04DX003 (ip), vehicle: Klucel (hydroxypropylcellulose) (HPC) 100 % of control

O=C(O)c1ccc(NC(C(=O)c2ccccc2)c2ccccc2)cc1 (stereo not drawn)
inactive: dose: 50.0 mg/kg/injection, schedule: Q01DX001 (ip), vehicle: Klucel (hydroxypropylcellulose) (HPC) 96 % of control | dose: 100.0 mg/kg/injection, schedule: Q01DX001 (ip), vehicle: Klucel (hydroxypropylcellulose) (HPC) 107 % of control | dose: 200.0 mg/kg/injection, schedule: Q01DX001 (ip), vehicle: Klucel (hydroxypropylcellulose) (HPC) 94 % of control

COc1ccc(CC(C)=C(C#N)C#N)cc1OC
inactive: [13] 103 % of control | [14] 97 % of control | [15] 97 % of control
